# Test results as given in US20110200527A1, “Peptide Ligand Directed Drug Delivery” (Shanghai Jiaotong University, priority 2007, published 2011).
# Experiments:
# H1299 cells = assay: MTT cell killing assay, H1299; format: cell-based; settings: Homo sapiens, NCI-H1299, H1299, 2 hours exposure, then 48 hours growth, read-out: calculated IC50
# Experimental: (§1) H1299 and SPCA1 cells were plated at the density of 10^4 cells/well in 96-well plates and grown overnight. […] The cells were then washed with fresh medium, and let grown for another 48 hours. The cell viabilities after different treatments were determined using a MTT assay (26).
# SPCA1 cells = assay: MTT cell killing assay, SPCA1; format: cell-based; settings: Homo sapiens, SPCA1, 2 hours exposure, then 48 hours growth, read-out: calculated IC50
# Experimental: as §1
# H-460 cells = assay: FACS analysis of liposome binding by doxorubicin fluorescence; format: cell-based; settings: 0.01 to 10 μg/ml doxorubicin, FIG. 8
# Experimental: H-460 cells were grown in cell culture plate under sterile conditions and harvested by scraping. The liposome samples (empty Thermodox liposome, ThermoDox, D4-ThermoDox, D4*-ThermoDox where D4 ThermoDox comprises SEQ ID NO:1 and D4*ThermoDox comprises SEQ ID NO:2) and doxorubicin hydrochloride were added and incubated at 37° C. with H-460 cells for 4 hours. Two different liposomes comprising different amounts of the peptide of the invention (D4-ThermoDox) were tested. The two liposomes were designated D4-ThermoDox2+2, which comprised DPPC:MSPC: DSPE-MPEG2000:D4-DSPE-MPEG2000 in a 90:10:2:2 molar ratio and D4-ThermoDox4+4, which comprised DPPC:MSPC: DSPE-MPEG2000:D4-DSPE-MPEG2000 in a 90:10:4:4 molar ratio. The D4*-ThermoDox comprised DPPC:MSPC: DSPE-MPEG2000:D4*-DSPE-MPEG2000 in a 90:10:2:2 molar ratio. After incubation, the cells were washed 4 times with PBS, and counted by FACS using doxorubicin fluorescence (excitation at 488 nm, and emission at 575 nm).
# The following groups were examined: a. Non-treatment control; b. ThermoDox at approx. 0.01-10 μg (doxorubicin)/mL; c. D4-ThermoDox2+2 at approx. 0.01-10 μg (doxorubicin)/mL; d. D4-ThermoDox4+4 at approx. 0.01-10 μg (doxorubicin)/mL; e. D4*-ThermoDox at approx. 0.01-10 μg (doxorubicin)/mL; and f. doxorubicin hydrochloride 0.01-10 μg. […]
# H1299 tumor bearing mice = assay: In vivo fluorescence imaging of Cy5.5 labeled peptides; settings: tail vein injection, 1 to 6 hours after injection
# Experimental: Both H1299 and SPCA1 xenograft mouse models were prepared by the animal experimental center of Shanghai Cancer Institute. They were used in the in vivo imaging experiments about 3˜4 weeks after tumor cell inoculation (tumor size about 5-7 mm diameter), and humanely sacrificed afterwards. The animal study protocols were approved by the Animal Study Committee of Shanghai Jiaotong University, School of Pharmacy.
# At various time points afterwards, the mice were anesthetized and imaged with an Optix in vivo fluorescence imaging system (GE Healthcare). Excepted for the Cy5.5 dye only control, all the other groups contained at least 3 mice. The representative images from the same most representative mouse in each group were shown. The images had been processed using the fluorescence lifetime gating for Cy5.5 (0.8-1.1 ns) to remove most autofluorescent interferences.
# Cy5.5 fluorescence distributions inside the mice were imaged at various time points after injection. In all groups including the free dye control, fluorescences were first seen all over the body, and then quickly afterwards in the kidney and bladder. […] But in LARLLT-Cy5.5 injected mice, between 1 to 6 hours after injection, fluorescence signals in the tumor tissue were much stronger, as compared to the surrounding tissues.
# [1] = biological target: epidermal growth factor receptor (EGFR) on EGFR high-expressing human lung cancer cells (H1299, SPCA1) (human, UniProt P00533 25-1210); assay: cell-based or functional assay
molecule,measurement,setting,value
"COc1cccc2c1C(=O)c1c(O)c3c(c(O)c1C2=O)C[C@@](O)(C(=O)CO)C[C@@H]3O[C@H]1C[C@H](N)[C@H](O)[C@H](C)O1 [free doxorubicin, doxorubicin]",IC50,H1299 cells,5.7 µg/mL
same,IC50,SPCA1 cells,2 µg/mL
same,doxorubicin uptake (mean fluorescence intensity),H-460 cells,highest
Cy5.5,fluorescence signal in the tumor region,H1299 tumor bearing mice,the same as background
"RTALLL (peptide thiolated with SPDP, reduced with TCEP and coupled to the maleimide of DSPE-PEG2000-Mal; the lipid conjugate is inserted into liposomes)","IC50 of cell killing (MTT), doxorubicin liposomes, H1299 cells",[1],85 µg/mL
same,"IC50 of cell killing (MTT), doxorubicin liposomes, SPCA1 cells",[1],15 µg/mL
